Source: US20260027068A1, “METHODS OF ADM[…]-KETAMINE” (Perception Neuroscience, Inc., priority 2022, published 2026)
Like-named read-outs stand apart in the source and are kept apart here.

Legend:
[1] = system: social defeat stress model in mice; conditions: cited from earlier work
[2] = system: cytochrome P450 (CYP) isoforms; experiment: In vitro drug metabolism: CYP isoforms involved
rodents = conditions: cited from earlier work
subjects with TRD = conditions: single IV infusion 0.5 mg/kg; 7 subjects with TRD; cited from earlier work
healthy subjects = system: healthy subjects
Source text: To date, there has been one clinical trial that evaluated the safety of R(−)-ketamine.

[3] = Oxygen saturation (pulse oximetry, SpO2)
Description: The Investigational Medicinal Product (IMP) R(−)-ketamine hydrochloride in sterile water for intravenous injection was investigated as an […] treatment of TRD. The International Union of Pure and Applied Chemistry (IUPAC) name is of the IMP is (2R)-2-(2-chlorophenyl)-2-(methylamino)cyclohexan-1-one. Subjects received the solution at either 30 mg or 60 mg dose, or a placebo. The IMP or placebo was administered on Day 1 as a single IV infusion via an electronic infusion pump over 40 minutes. The duration of study participation for each subject was up to 29 days including a screening period, a 3-day in-clinic visit, and 2 follow-up visits. 101 subjects were enrolled in approximately 20 study centers in the EU and the US.
Tympanic or temporal temperature, heart rate, blood pressure (SBP/DBP), respiratory rate, and SpO2 were assessed. Blood pressure and pulse measurements will be assessed with a completely automated device while the subject is supine or semi-supine. Manual techniques will be used only if an automated device is not available. Blood pressure and pulse measurements should be preceded by at least 5 minutes of rest for the subject in a quiet setting without distractions (e.g., television, cell phones). An abnormal blood pressure value at screening may be repeated once after 5 minutes of relaxation to determine the subject's eligibility. Blood pressure was recorded using the same arm and position (supine or semi-supine) throughout the study, where possible. Vital signs (to be taken before blood collection for laboratory tests) consisted of 1 pulse and 3 blood pressure measurements (3 consecutive blood pressure readings will be recorded at intervals of at least 1 minute). The average of the 3 blood pressure readings was recorded in the CRF. A pulse oximeter was used to measure peripheral capillary oxygen saturation (SpO2) continuously from pre-dose until 4-hours post-dose. A pulse oximeter was clipped onto the finger or foot of the subject, and light will be sent through the finger or foot and measured on the other side.
In these tables, baseline value is defined as the last non-missing value prior to study drug administration.

Compound: CN[C@@]1(c2ccccc2Cl)CCCCC1=O.Cl [R(−)-ketamine, (2R)-2-(2-chlorophenyl)-2-(methylamino)cyclohexan-1-one]
- Anti-depressant effects [1]: more potent and long lasting anti-depressant effects when compared to S(+)-ketamine
- CYP isoforms involved in the metabolism [2]: primarily CYP2B6, CYP3A4/5, and CYP2C19
- Conditioned place preference (rodents; 20 mg/kg): did not cause conditioned place preference
- Conditioned place preference (rodents; 40 mg/kg): did cause conditioned place preference
- Antidepressant effects and safety profile (subjects with TRD): fast-onset and sustained antidepressant effects with a favorable safety profile
- Safety findings compared with 100 mg or 150 mg doses (healthy subjects; 30 mg and 60 mg doses): fewer transient elevations in mean systemic blood pressure, less sedation, fewer psychological or psychotic and dissociative effects, and fewer episodes of altered consciousness
- Dose level most similar to 15 mg S(+)-ketamine in terms of safety profile (healthy subjects; healthy subjects): 60 mg
- Doses with acceptable safety profiles (healthy subjects; single 40-minute IV infusions, healthy subjects): ≤ 150 mg
- Oxygen Saturation, Max ([3]; 30 mg, Day 1, 15 minutes): 100%
- Oxygen Saturation, Mean ([3]; 30 mg, Day 1, 15 minutes): 98.3%
- Oxygen Saturation, Median ([3]; 30 mg, Day 1, 15 minutes): 98.0%
- Oxygen Saturation, Min ([3]; 30 mg, Day 1, 15 minutes): 96%
- Oxygen Saturation, Max ([3]; 30 mg, Day 1, 40 minutes): 99%
- Oxygen Saturation, Mean ([3]; 30 mg, Day 1, 40 minutes): 98.3%
- Oxygen Saturation, Median ([3]; 30 mg, Day 1, 40 minutes): 98.0%
- Oxygen Saturation, Min ([3]; 30 mg, Day 1, 40 minutes): 96%
- Oxygen Saturation, Max ([3]; 30 mg, Day 1, 60 minutes): 100%
- Oxygen Saturation, Mean ([3]; 30 mg, Day 1, 60 minutes): 98.2%
- Oxygen Saturation, Median ([3]; 30 mg, Day 1, 60 minutes): 98.0%
- Oxygen Saturation, Min ([3]; 30 mg, Day 1, 60 minutes): 96%
- Oxygen Saturation, Max ([3]; 30 mg, Day 1, 2 hours): 100%
- Oxygen Saturation, Mean ([3]; 30 mg, Day 1, 2 hours): 98.4%
- Oxygen Saturation, Median ([3]; 30 mg, Day 1, 2 hours): 99.0%
- Oxygen Saturation, Min ([3]; 30 mg, Day 1, 2 hours): 97%
- Oxygen Saturation, Max ([3]; 30 mg, Day 1, 4 hours): 100%
- Oxygen Saturation, Mean ([3]; 30 mg, Day 1, 4 hours): 98.3%
- Oxygen Saturation, Median ([3]; 30 mg, Day 1, 4 hours): 98.0%
- Oxygen Saturation, Min ([3]; 30 mg, Day 1, 4 hours): 96%
- Oxygen Saturation, Change from Baseline, Max ([3]; 30 mg, to Day 1, 15 minutes): 2%
- Oxygen Saturation, Change from Baseline, Mean ([3]; 30 mg, to Day 1, 15 minutes): −0.3%
- Oxygen Saturation, Change from Baseline, Median ([3]; 30 mg, to Day 1, 15 minutes): 0.0%
- Oxygen Saturation, Change from Baseline, Min ([3]; 30 mg, to Day 1, 15 minutes): −3%
- Oxygen Saturation, Change from Baseline, Max ([3]; 30 mg, to Day 1, 40 minutes): 2%
- Oxygen Saturation, Change from Baseline, Mean ([3]; 30 mg, to Day 1, 40 minutes): −0.4%
- Oxygen Saturation, Change from Baseline, Median ([3]; 30 mg, to Day 1, 40 minutes): 0.0%
- Oxygen Saturation, Change from Baseline, Min ([3]; 30 mg, to Day 1, 40 minutes): −2%
- Oxygen Saturation, Change from Baseline, Max ([3]; 30 mg, to Day 1, 60 minutes): 1%
- Oxygen Saturation, Change from Baseline, Mean ([3]; 30 mg, to Day 1, 60 minutes): −0.5%
- Oxygen Saturation, Change from Baseline, Median ([3]; 30 mg, to Day 1, 60 minutes): 0.0%
- Oxygen Saturation, Change from Baseline, Min ([3]; 30 mg, to Day 1, 60 minutes): −3%
- Oxygen Saturation, Change from Baseline, Max ([3]; 30 mg, to Day 1, 2 hours): 3%
- Oxygen Saturation, Change from Baseline, Mean ([3]; 30 mg, to Day 1, 2 hours): −0.2%
- Oxygen Saturation, Change from Baseline, Median ([3]; 30 mg, to Day 1, 2 hours): 0.0%
- Oxygen Saturation, Change from Baseline, Min ([3]; 30 mg, to Day 1, 2 hours): −2%
- Oxygen Saturation, Change from Baseline, Max ([3]; 30 mg, to Day 1, 4 hours): 3%
- Oxygen Saturation, Change from Baseline, Mean ([3]; 30 mg, to Day 1, 4 hours): −0.4%
- Oxygen Saturation, Change from Baseline, Median ([3]; 30 mg, to Day 1, 4 hours): 0.0%
- Oxygen Saturation, Change from Baseline, Min ([3]; 30 mg, to Day 1, 4 hours): −3%
- Oxygen Saturation, Max ([3]; 60 mg, Day 1, 15 minutes): 100%
- Oxygen Saturation, Mean ([3]; 60 mg, Day 1, 15 minutes): 98.2%
- Oxygen Saturation, Median ([3]; 60 mg, Day 1, 15 minutes): 98.0%
- Oxygen Saturation, Min ([3]; 60 mg, Day 1, 15 minutes): 96%
- Oxygen Saturation, Max ([3]; 60 mg, Day 1, 40 minutes): 100%
- Oxygen Saturation, Mean ([3]; 60 mg, Day 1, 40 minutes): 98.1%
- Oxygen Saturation, Median ([3]; 60 mg, Day 1, 40 minutes): 98.0%
- Oxygen Saturation, Min ([3]; 60 mg, Day 1, 40 minutes): 95%
- Oxygen Saturation, Max ([3]; 60 mg, Day 1, 60 minutes): 100%
- Oxygen Saturation, Mean ([3]; 60 mg, Day 1, 60 minutes): 98.1%
- Oxygen Saturation, Median ([3]; 60 mg, Day 1, 60 minutes): 98.0%
- Oxygen Saturation, Min ([3]; 60 mg, Day 1, 60 minutes): 95%
- Oxygen Saturation, Max ([3]; 60 mg, Day 1, 2 hours): 100%
- Oxygen Saturation, Mean ([3]; 60 mg, Day 1, 2 hours): 98.2%
- Oxygen Saturation, Median ([3]; 60 mg, Day 1, 2 hours): 98.0%
- Oxygen Saturation, Min ([3]; 60 mg, Day 1, 2 hours): 97%
- Oxygen Saturation, Max ([3]; 60 mg, Day 1, 4 hours): 100%
- Oxygen Saturation, Mean ([3]; 60 mg, Day 1, 4 hours): 98.3%
- Oxygen Saturation, Median ([3]; 60 mg, Day 1, 4 hours): 99.0%
- Oxygen Saturation, Min ([3]; 60 mg, Day 1, 4 hours): 96%
- Oxygen Saturation, Change from Baseline, Max ([3]; 60 mg, to Day 1, 15 minutes): 4%
- Oxygen Saturation, Change from Baseline, Mean ([3]; 60 mg, to Day 1, 15 minutes): 0.0%
- Oxygen Saturation, Change from Baseline, Median ([3]; 60 mg, to Day 1, 15 minutes): 0.0%
- Oxygen Saturation, Change from Baseline, Min ([3]; 60 mg, to Day 1, 15 minutes): −2%
- Oxygen Saturation, Change from Baseline, Max ([3]; 60 mg, to Day 1, 40 minutes): 2%
- Oxygen Saturation, Change from Baseline, Mean ([3]; 60 mg, to Day 1, 40 minutes): −0.1%
- Oxygen Saturation, Change from Baseline, Median ([3]; 60 mg, to Day 1, 40 minutes): 0.0%
- Oxygen Saturation, Change from Baseline, Min ([3]; 60 mg, to Day 1, 40 minutes): −2%
- Oxygen Saturation, Change from Baseline, Max ([3]; 60 mg, to Day 1, 60 minutes): 3%
- Oxygen Saturation, Change from Baseline, Mean ([3]; 60 mg, to Day 1, 60 minutes): −0.1%
- Oxygen Saturation, Change from Baseline, Median ([3]; 60 mg, to Day 1, 60 minutes): 0.0%
- Oxygen Saturation, Change from Baseline, Min ([3]; 60 mg, to Day 1, 60 minutes): −4%
- Oxygen Saturation, Change from Baseline, Max ([3]; 60 mg, to Day 1, 2 hours): 3%
- Oxygen Saturation, Change from Baseline, Mean ([3]; 60 mg, to Day 1, 2 hours): 0.0%
- Oxygen Saturation, Change from Baseline, Median ([3]; 60 mg, to Day 1, 2 hours): 0.0%
- Oxygen Saturation, Change from Baseline, Min ([3]; 60 mg, to Day 1, 2 hours): −2%
- Oxygen Saturation, Change from Baseline, Max ([3]; 60 mg, to Day 1, 4 hours): 1%
- Oxygen Saturation, Change from Baseline, Mean ([3]; 60 mg, to Day 1, 4 hours): 0.2%
- Oxygen Saturation, Change from Baseline, Median ([3]; 60 mg, to Day 1, 4 hours): 0.0%
- Oxygen Saturation, Change from Baseline, Min ([3]; 60 mg, to Day 1, 4 hours): −2%
